Numbered stars: 1 amine (or outer) side, 2 acyl side, 3 side chain; on linkers, the order of the positions; unused ones are H or OH. Square brackets hold non-standard residues; d marks the D form. Peptide text beside a SMILES is read from it. X1 = CC(C)C[C@H](CC(=O)CN[*:1])C(=O)[*:2]; pGlu = O=C1CC[C@@H](C(=O)O)N1
organism: Rattus norvegicus; assay: Inhibition of the degradation of [125IBH]-SP6-11 in rat hypothalamus preparations; type: functional

SMILES | IC50
O=C1CC[C@H](C(=O)N[C@@H](Cc2ccccc2)C(=O)C/C(=C/c2ccccc2)C(=O)O)N1 | > 200 µM
CCOC(=O)/C(=C\c1ccccc1)CC(=O)[C@H](Cc1ccccc1)NC(=O)[C@H]1CCC(=O)N1 | > 200 µM
COC(=O)CCC(=O)[C@H](Cc1ccccc1)NC(=O)[C@H](Cc1ccccc1)NC(=O)[C@H]1CCC(=O)N1 | > 200 µM
COC(=O)CCC(=O)[C@@H](N)Cc1ccccc1 | > 200 µM
CCOC(=O)/C(=C\c1ccccc1)CC(=O)[C@@H](N)Cc1ccccc1 | > 200 µM

Further lines, results first:

IC50 | SMILES
> 200 µM | CCOC(=O)/C(=C\c1ccccc1)CC(=O)[C@H](Cc1ccccc1)NC(=O)c1ccccc1
1.8 µM | CSCC[C@H](NC(=O)[C@H](CC(C)C)NC(=O)CNC(=O)/C(=C\c1ccccc1)CC(=O)[C@H](Cc1ccccc1)NC(=O)[C@H]1CCC(=O)N1)C(N)=O
30 µM | CSCC[C@H](NC(=O)[C@H](CC(C)C)NC(=O)CNC(=O)[C@@H](CC(=O)[C@H](Cc1ccccc1)NC(=O)[C@H]1CCC(=O)N1)Cc1ccccc1)C(N)=O
50 µM | CSCC[C@H](NC(=O)[C@@H](CC(=O)CNC(=O)[C@H](Cc1ccccc1)NC(=O)[C@H](Cc1ccccc1)NC(=O)[C@@H]1CCC(=O)N1)CC(C)C)C(N)=O ([pGlu]FF[X1]M-NH2)

From ChEMBL document CHEMBL1124038, “Dehydro keto methylene and keto methylene analogues of substance P. Synthesis and biological activity” (J Med Chem, 1988)
